“And” between values parts separate entries of the source, which are not always exact repeats. Equal entries are not always repeated. Where two headings read alike, the source gives them in different places.

Assay [1] relates to SW480 Human colorectal carcinoma cells. Nature of the assay: Kras mutant xenograft model of human colorectal cancer (SW480), single agent therapy. To be noted: SW480 xenograft mice, Day 22.
Assay [2] shares this test system. Nature of the assay: SW480 human colorectal xenografts, Erbitux failed tumors. Conditions: 40 mg/kg q2dx7 after C-225 challenge; SW480 xenograft mice; Day 22.
Assay [3] deals with MiaPaCA-2 pancreatic cells. Nature of the assay: Kras mutant pancreatic cancer xenograft model (MiaPaCa-2). The format is in vivo, human. Conditions: MiaPaCa-2 xenograft mice.
For assay [4], the system named is Calu-6 Human Lung Carcinoma cells. Nature of the assay: Calu 6 Kras mutant xenografts that failed C225 (Erbitux) therapy. To be noted: 40 mg/kg q2dx5 after C-225 challenge, Calu-6 xenograft mice.
Assay [5] shares this test system. Conditions: Calu-6 xenograft mice; for % T/C / % TGI: day 20; for Observed cures: day 57.

As for `CCc1c2c(nc3ccc(OC(=O)N4CCC(N5CCCCC5)CC4)cc13)-c1cc3c(c(=O)n1C2)COC(=O)[C@]3(O)CC` [CPT-11, Irinotecan], the “% TGI” value in assay [1] (40 mg/kg q2dx5) was 65% and 64.76%; in assay [1] (80 mg/kg qdx1), 47% and 46.53%; in assay [2], 65.38%; in assay [4] (day 20), 84%; in assay [5] (40 mg/kg q2dx5), 95%; in assay [5] (80 mg/kg qdx1), 52%. Further, the figures for the “Percent Change in TV” value in assay [1] (40 mg/kg q2dx5), in assay [1] (80 mg/kg qdx1) and in assay [2] were 163.62%, 397.75% and 219.31%, respectively. Further, the results for the “% T/C” value in assay [1] (80 mg/kg qdx1), in assay [5] (40 mg/kg q2dx5) and in assay [5] (80 mg/kg qdx1) were 66.60%, 5% and 48%, respectively. Also, the inhibition of tumour growth (TGI) in assay [3] (CPT-11 at corresponding dose level as compound 9 (10 mg/kg, q2d×5)) is reported as 20%; in assay [3] (multiple-dose at MTD of CPT-11 (40 mg/kg q2d×5)) it was 47%. Further, the “effect on tumor growth” value in assay [3] (single dose at the MTD (80 mg/kg qd×1)) is given as “no effect on tumor growth”. Further, the Observed cures in assay [4] (day 57), in assay [5] (40 mg/kg q2dx5) and in assay [5] (80 mg/kg qdx1) was 0/8 in each case. The “day by which animals relapsed” value in assay [5] (40 mg/kg q2d×5) lay in the range of 40 to 45 days. Moreover, the “day by which all animals had to be sacrificed due to excessive tumor burden” value in assay [5] (80 mg/kg qd×1) fell in the range of 22 to 24 days.
